The subject of data set [1] is Jurkat human leukemia T cells. The experiment in a line: Inhibition of Jurkat human leukemia T cell proliferation (MTT reduction). The format is cell-based. The conditions noted are these: 100 μg/ml sequence, 48 h, 2.5×10^5 cells/ml. Summed up:
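Read-out is MTT absorbance at 570 nm after 48 h. Sequences of 2 to 45 bases (A, C, G, T) tested at 100 μg/ml against untreated control, with 2.5×10^5 Jurkat cells/ml held at 37° C under 5% CO2.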
(Formazan colour is commonly taken as a measure of viable cells.)

Another data set concerns IMC tumor. To be noted: premixed with IMC cells and injected into CDF-1 mice; cited from earlier work.
For data set [2], the system named is THP-1 human acute monocytic leukemia cells. Briefly: Cytokine production by THP-1 cells (ELISA). To be noted: THP-1, 1×10^6 cells, 100 μg/ml, 48 h; for ↑ IL-12 (fold increase treated vs control cells): p70 complex and free p40. The format is cell-based. Put shortly:
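Read-out is fold increase in supernatant cytokine versus control cells, measured by ELISA (IL-12 ELISA counts p70 complex plus free p40). Unless noted, sequences were tested at 100 μg/ml on 1×10^6 cells, incubated 48 h, 37° C, 5% CO2.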
In general terms: An ELISA detects its analyte on a solid surface through an enzyme-linked reagent.

The test system of data set [3] is LNCaP human prostate cancer cells. The experiment in a line: Inhibition of LNCaP cell proliferation (MTT). The format is cell-based. To be noted: 100 μg/ml, 48 h, 5×10^5 cells/ml. How it is done: (§1) Cells were seeded in 6 (1 ml/well), 24 (0.5 ml/well) or 96 (0.1 ml/well) well flat-bottom microplates and were maintained at 37° C. in a 5% CO2 atmosphere. Unless stated otherwise, 2.5×10^5 cells/ml were incubated with 0 μg/ml (control) and 100 μg/ml (treated) of 2 to 45 base sequences containing A, C, G and T for 48 h.
(§2) Cell proliferation was measured using dimethylthiazol-diphenyl-tetrazolium (MTT) reduction (Mosman et al. J. Immunol. Methods 65:55, 1983). MTT was measured at a wavelength of 570 nm using a multiplate spectrophotometer reader (ELX800, Bio-TEK Instruments Inc., Winooski, Vt.).
LNCaP prostate cancer cells are a TGF-beta 1 receptor negative, […], metastatic human solid tumor model. LNCaP cells (5×10^5 cells/ml) were incubated with 6 base GT sequences (Table 9).

In the next data set the target is T1, telomerase (Homo sapiens, UniProt O14746).
T1 construct: extracts from 2×10^5 Jurkat T cells were assayed using the PCR-telomeric repeat amplification protocol (TRAP); endogenous in cells; host or cells: Jurkat T cells (cell extract)
T1 sequence (O14746 whole entry): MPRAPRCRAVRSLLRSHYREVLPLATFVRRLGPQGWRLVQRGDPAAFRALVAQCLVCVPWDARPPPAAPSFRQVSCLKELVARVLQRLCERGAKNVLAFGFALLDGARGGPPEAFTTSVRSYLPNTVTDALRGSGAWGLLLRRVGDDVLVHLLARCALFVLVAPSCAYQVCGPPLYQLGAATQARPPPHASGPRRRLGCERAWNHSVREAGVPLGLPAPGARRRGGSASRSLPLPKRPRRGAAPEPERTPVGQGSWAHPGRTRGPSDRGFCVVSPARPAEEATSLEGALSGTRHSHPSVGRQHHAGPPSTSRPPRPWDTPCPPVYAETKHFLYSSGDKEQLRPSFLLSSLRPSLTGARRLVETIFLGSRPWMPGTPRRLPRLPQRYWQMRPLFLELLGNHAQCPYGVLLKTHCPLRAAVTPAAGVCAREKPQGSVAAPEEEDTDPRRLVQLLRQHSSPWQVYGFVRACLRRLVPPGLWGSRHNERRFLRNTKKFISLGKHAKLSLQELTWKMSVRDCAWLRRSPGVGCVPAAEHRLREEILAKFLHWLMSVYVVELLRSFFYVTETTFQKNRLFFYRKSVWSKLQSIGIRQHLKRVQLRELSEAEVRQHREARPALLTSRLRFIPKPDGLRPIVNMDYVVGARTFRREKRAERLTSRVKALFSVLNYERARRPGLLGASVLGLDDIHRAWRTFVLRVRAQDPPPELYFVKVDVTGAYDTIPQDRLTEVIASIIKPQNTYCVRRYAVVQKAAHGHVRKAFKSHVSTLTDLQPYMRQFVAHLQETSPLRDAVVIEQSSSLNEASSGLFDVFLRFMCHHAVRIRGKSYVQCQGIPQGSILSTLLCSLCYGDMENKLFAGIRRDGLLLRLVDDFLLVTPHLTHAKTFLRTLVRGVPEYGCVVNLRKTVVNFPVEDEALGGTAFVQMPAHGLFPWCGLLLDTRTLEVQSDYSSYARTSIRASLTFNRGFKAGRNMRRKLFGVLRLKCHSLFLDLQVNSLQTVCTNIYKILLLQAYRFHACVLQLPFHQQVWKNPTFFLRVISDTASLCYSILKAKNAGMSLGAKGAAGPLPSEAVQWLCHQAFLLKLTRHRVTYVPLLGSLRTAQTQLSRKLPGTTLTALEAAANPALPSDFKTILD
Briefly: PCR-telomeric repeat amplification protocol (TRAP) on Jurkat T cell extracts. The format is biochemical. To be noted: concentrations between 1 and 100 μg/ml, extracts from 2×10^5 Jurkat T cells. How it is done: To determine telomerase activity, extracts from 2×10^5 Jurkat T cells were assayed using the PCR-telomeric repeat amplification protocol (TRAP) (Roche, Laval, Québec, Canada).

For data set [4], the system named is MCF-7 human breast cancer cells. The experiment in a line: Inhibition of MCF-7 cell proliferation (MTT). The format is cell-based. The conditions noted are these: 100 μg/ml, 48 h, 5×10^5 cells/ml. Put shortly: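 Cells at 2.5×10^5 cells/ml (GT 3- and 6-base series at 5×10^5 cells/ml) treated with 100 μg/ml of 2-45-base oligonucleotide sequences versus untreated control for 48 h at 37 °C, 5% CO2. Proliferation read by MTT reduction at 570 nm.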

For data set [5], the system named is Jurkat human leukemia T cells. The experiment in a line: Cell cycle stage in Jurkat cells (propidium iodide flow cytometry). The format is cell-based. The conditions noted are these: Jurkat, 24 h, 100 μg/ml. Put shortly:
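Phase distribution (G0/G1, early, mid and late S, G2/M) came from flow cytometry with doublet discrimination on propidium iodide-stained nuclei. Jurkat cells were given 24 h exposure to 2–45-base oligonucleotides, or at 1×10^6 cells/ml to single 6-base GT or AC strands heated 10 min at 65 °C or 1:1 hybridized duplex.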
(In general: In flow cytometry, cells or beads pass a laser one at a time.)

In data set [6] the test system is EL-4 murine T lymphoma cells. Briefly: Inhibition of EL-4 cell proliferation (MTT). The format is cell-based. The conditions noted are these: 100 μg/ml, 48 h. How it is done:
as §1, §2
EL-4 murine lymphoma T cells are a suspension tumor model. EL-4 murine lymphoma T cells were incubated with 6, 18, 27 and 33 base GT sequences and with a 15 base ACG sequence (Table 18).

The test system of data set [7] is SK-OV-3 human ovarian cancer cells. The experiment in a line: Inhibition of SK-OV-3 cell proliferation (MTT). To be noted: 100 μg/ml, 48 h, 5×10^5 cells/ml. The format is cell-based. How it is done: as §1, §2
SK-OV-3 ovarian cancer cells are a p53 mutated, p21/waf-1/Cip deleted, p15^ink4B deleted, p16^Ink4 deleted, metastatichuman solid tumor model. SK-OV-3 cells (5×10^5 cells/ml) were incubated with 2, 6 and 18 base GT sequences (Table 12).

Data set [8] relates to OVCAR-3 human ovarian cancer cells. The experiment in a line: Inhibition of OVCAR-3 cell proliferation (MTT). The format is cell-based. To be noted: 100 μg/ml, 48 h, 5×10^5 cells/ml. How it is done: as §1, §2
OVCAR-3 ovarian cancer cells are a p53 mutated, p21/waf-1/Cip deleted, metastatic human solid tumor model. OVCAR-3 cells (5×10^5 cells/ml) were incubated with 2, 6 and 18 base GT sequences and with a 6 base AGT sequence (Table 11).

Data set [9] concerns EL-4 murine T lymphoma cells. Briefly: EL-4 murine T lymphoma in C57/BL6 mice. The format is in vivo. The conditions noted are these: after 4 weeks of treatment, compared with group 1 (saline). How it is done:
EL-4 murine T lymphoma cells are implanted into C57/BL6 mice. The mice are divided into 6 groups of 10 mice. On day 0, group 1 mice receive saline, group 2 mice receive 3 base GT SEQ ID NO:8, group 3 mice receive 6 base SEQ ID NO:25, group 4 mice receive 6 base AG SEQ ID NO:45, group 5 mice receive 18 base GT SEQ ID NO: 18 and group 6 mice receive 27 base GT SEQ ID NO:1. After 4 weeks of treatment, the mice are sacrificed and tumor mass is determined.

Data set [10] concerns MCF-7 human breast cancer cells. Briefly: Cell cycle stage in MCF-7 cells (propidium iodide flow cytometry). The format is cell-based. To be noted: MCF-7, 5×10^5 cells/ml, 24 h. How it is done: Cell cycle stage was determined using a […]™ PLUS DNA commercial kit (Becton Dickinson). Briefly, nuclei from cells were obtained by dissolving the cell membrane in a nonionic detergent, eliminating the cell cytoskeleton and nuclear proteins with trypsin, digesting the cellular RNA with RNase and stabilizing the nuclear chromatin with spermine. Propidium iodide was added to the cell nuclei and their fluorescence was analyzed in a flow cytometer equipped with electronic doublet discrimination capability (FACSCalibur, Becton Dickinson, San Jose, Calif.). Accumulation of cells in G0/G1, early S (SE), mid S (SM), late S (SL) or G2/M phases of the cell cycle was analyzed using MODFIT LT software (Verity Software House Inc., Topsham, Mass.).
Exponentially growing Jurkat human leukemia T cells (Table 28) and MCF-7 human breast cancer cells (5×10^5 cells/ml) (Table 29) were incubated for 24 h with 2, 6, 15, 18, 27 and 45 base sequences containing A, C, G and T. The cells were collected and centrifuged and cell cycle stage was determined.

The test system of another data set is Burkitt lymphoma cells. The conditions noted are these: Mata et al. 1997; cited from earlier work.

As to “AAAAGAAGTGGGGTGCCCCCACGATCACCAACGATGGTGTGTCCA (unmodified DNA) [BCG A-2, reference compound]”, in data set [1], the “% INHIBITION of Jurkat human leukemia T cell proliferation” value turned out to be 19%. The “inhibition of IMC tumor growth” value in the data set with IMC tumor was 88%. Also, in [2], the “↑ IL-6 (fold increase treated vs control cells)” value was 3.9x and the “↑ IL-12 (fold increase treated vs control cells)” value is listed as 1.6x.

Consider “ACCGATGACGTCGCCGGTGACGGCAACACGACGGCCACCGTGCTG (unmodified DNA) [BCG A-4, reference compound]”, for which, in [1], the “% INHIBITION of Jurkat human leukemia T cell proliferation” value was determined as 9%. Moreover, the “inhibition of IMC tumor growth” value with IMC tumor is recorded as 37%. In data set [2], the “↑ IL-6 (fold increase treated vs control cells)” value worked out at 1.8x and the “↑ IL-12 (fold increase treated vs control cells)” value is given as 0.9x.

Turning to GGGTGG [SEQ ID NO:25 phosphorothioate], the “% INHIBITION of LNCaP human prostate cancer cell proliferation” value in [3] was −8%. Besides, in [1], the “% INHIBITION of Jurkat human leukemia T cell proliferation” value was found to be 0%. Further, the anti-telomerase activity entry with telomerase was “Neither GT SEQ ID NO:25-phosphorothioate nor GT SEQ ID NO:49-phosphodiester showed any anti-telomerase actvity”. For the same sequence, in data set [4], the “% INHIBITION of MCF-7 human breast cancer cell proliferation” value is recorded as 12%. In addition, in [5], the “% of cells in phase: G0/G1” value is 34.9%, the “% of cells in phase: G2/M” value is on record as 24.7%, the “% of cells in phase: SE” value is listed as 14.8% and the “% of cells in phase: SL” value was found to be 10.6%. Further, in data set [5], the “% of cells in phase: SM” value is recorded as 15.0% and the “Arrest (cell cycle)” value is recorded as “None”. Besides, the “↑ IL-12 (fold increase treated vs control cells)” value in data set [2] was found to be 0.0x. Also, in data set [2] (listed as GsGsGsTsGsGs), the “↑ IL-12 (fold increase treated vs control cells)” value is on record as 0 x. Further, the “% INHIBITION of EL-4 murine T lymphoma cell proliferation” value in data set [6] is recorded as −8%.

Turning to “GTGTGTGTGTGTGTGTGT (unmodified DNA) [SEQ ID NO:18]”, in data set [1], the “% INHIBITION of Jurkat human leukemia T cell proliferation” value worked out at 60%. Further, the “% INHIBITION of SK-OV-3 human ovarian cancer cell proliferation” value in data set [7] amounted to 6%. Besides, the “% INHIBITION of OVCAR-3 human ovarian cancer cell proliferation” value in [8] is 10%. In addition, the tumor mass entry in data set [9] is “less tumor mass than group 1 mice”. In data set [10], the “% cells in phase: G0/G1” value is 25.3%, the “% cells in phase: G2/M” value was 15.7%, the “% cells in phase: SE” value turned out to be 31.6% and the “% cells in phase: SL” value is 10.5%. Besides, in data set [10], the “% cells in phase: SM” value is listed as 16.9% and the “Arrest (cell cycle)” value was “Mid SM”. For the same sequence, in [5], the “% of cells in phase: G0/G1” value was 24.2%, the “% of cells in phase: G2/M” value is 16.4%, the “% of cells in phase: SE” value turned out to be 26.7% and the “% of cells in phase: SL” value came out at 8.7%. Further, in [5], the “% of cells in phase: SM” value amounted to 24.0% and the “Arrest (cell cycle)” value is “Mid SM”. The “↑ IL-6 (fold increase treated vs control cells)” value in data set [2] is 2.8x. The “% INHIBITION of EL-4 murine T lymphoma cell proliferation” value in data set [6] is −2%.

Consider “TTAGGG (phosphodiester backbone) [SEQ ID NO:49, reference compound]”, for which the “% INHIBITION of Jurkat human leukemia T cell proliferation” value in data set [1] stood at 45%. Besides, the “% INHIBITION of SK-OV-3 human ovarian cancer cell proliferation” value in data set [7] turned out to be 11%. Further, in the data set with telomerase (listed as SEQ ID NO:49-phosphodiester), the anti-telomerase activity entry is recorded as “Neither GT SEQ ID NO:25-phosphorothioate nor GT SEQ ID NO:49-phosphodiester showed any anti-telomerase actvity”. In data set [8], the “% INHIBITION of OVCAR-3 human ovarian cancer cell proliferation” value is recorded as 15%. Moreover, in data set [10], the “% cells in phase: G0/G1” value is given as 20.0%, the “% cells in phase: G2/M” value came out at 15.0%, the “% cells in phase: SE” value came to 18.6% and the “% cells in phase: SL” value was 20.7%. Besides, in data set [10], the “% cells in phase: SM” value came out at 25.7% and the “Arrest (cell cycle)” value was “Mid SM”. In addition, in [5], the “% of cells in phase: G0/G1” value is listed as 24.6%, the “% of cells in phase: G2/M” value is 12.8%, the “% of cells in phase: SE” value is given as 37.2% and the “% of cells in phase: SL” value turned out to be 5.9%. In data set [5], the “% of cells in phase: SM” value stood at 19.5% and the “Arrest (cell cycle)” value is given as “Mid SM”. Further, in data set [2], the “↑ IL-6 (fold increase treated vs control cells)” value amounted to 6.7x and the “↑ IL-12 (fold increase treated vs control cells)” value is listed as 2.0x.

As to “TTAGGG (phosphorothioate backbone) [SEQ ID NO:49-phosphorothioate]”, in the data set on Burkitt lymphoma cells, the “induction of apoptosis in Burkitt lymphoma cells” value is “induce apoptosis in Burkitt lymphoma cells” and the “inhibition of telomerase activity” value is recorded as “inhibit telomerase activity”.

Values taken from patent publication US20070213291A1, “Therapeutically useful synthetic oligonucleotides” (priority 1999, published 2007).
